Experimental data: patent publication US20020183362A1, “2-Fluorobenzenesulfonyl compounds for the treatment of inflammation” (Pharmacia Corporation, priority 2000, published 2002)

Legend:
Human COX-1 [1] = target: T1, Human COX-1 (Homo sapiens, UniProt P23219); assay: Assay for COX-1 and COX-2 activity (PGE2 ELISA, recombinant enzyme), COX-1; type: biochemical; details: Table I; pre-incubated 10-20 minutes, arachidonic acid 10 μM, stopped after ten minutes, pH 8.0
T1 construct: A 2.0 kb fragment containing the coding region of either human or murine COX-1 or human or murine COX-2; made in house; host or cells: SF9 insect cells (baculovirus, transfer vector pVL1393)
T1 sequence (P23219 24-599): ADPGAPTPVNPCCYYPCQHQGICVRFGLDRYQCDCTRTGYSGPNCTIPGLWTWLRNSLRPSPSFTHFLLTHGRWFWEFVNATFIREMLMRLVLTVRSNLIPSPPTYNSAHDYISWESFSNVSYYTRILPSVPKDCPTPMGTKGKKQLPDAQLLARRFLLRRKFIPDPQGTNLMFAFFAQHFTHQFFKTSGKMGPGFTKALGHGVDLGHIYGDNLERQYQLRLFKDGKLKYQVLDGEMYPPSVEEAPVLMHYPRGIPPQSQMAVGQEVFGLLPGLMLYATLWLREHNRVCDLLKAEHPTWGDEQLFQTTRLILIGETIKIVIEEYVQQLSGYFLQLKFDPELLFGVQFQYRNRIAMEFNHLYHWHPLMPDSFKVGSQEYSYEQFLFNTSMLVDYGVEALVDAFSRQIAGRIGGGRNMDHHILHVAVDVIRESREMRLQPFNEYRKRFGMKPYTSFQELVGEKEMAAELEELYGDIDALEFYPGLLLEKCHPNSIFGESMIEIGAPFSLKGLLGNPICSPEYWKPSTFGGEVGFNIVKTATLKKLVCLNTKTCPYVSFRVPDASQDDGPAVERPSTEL
Description: (§1) Recombinant baculoviruses were isolated by transfecting 4 μg of baculovirus transfer vector DNA into SF9 insect cells (2×10^8) along with 200 ng of linearized baculovirus plasmid DNA by the calcium phosphate method. See M. D. Summers and G. E. Smith, A Manual of Methods for Baculovirus Vectors and Insect Cell Culture Procedures, Texas Agric. Exp. Station Bull. […] Recombinant viruses were purified by three rounds of plaque purification and high titer (10^7-10^8 pfu/mL) stocks of virus were prepared. For large scale production, SF9 insect cells were infected in 10 liter fermentors (0.5×10^6/mL) with the recombinant baculovirus stock such that the multiplicity of infection was 0.1. After 72 hours the cells were centrifuged and the cell pellet homogenized in Tris/Sucrose (50 mM: 25%, pH 8.0) containing 1% 3-[(3-cholamidopropyl)dimethylammonio]-1-propanesulfonate (CHAPS). The homogenate was centrifuged at 10,000×G for 30 minutes, and the resultant supernatant was stored at −80° C. before being assayed for COX activity.
COX activity was assayed as PGE2 formed/μg protein/time using an ELISA to detect the prostaglandin released. CHAPS-solubilized insect cell membranes containing the appropriate COX enzyme were incubated in a potassium phosphate buffer (50 mM, pH 8.0) containing epinephrine, phenol, and heme with the addition of arachidonic acid (10 μM). Compounds were pre-incubated with the enzyme for 10-20 minutes prior to the addition of arachidonic acid. […] The PGE2 formed was measured by standard ELISA technology (Cayman Chemical).

Human COX-2 [2] = target: T2, Human COX-2 (Homo sapiens, UniProt P35354); assay: Fast assay for COX-1 and COX-2 activity (PGE2 ELISA), COX-2; type: biochemical; details: Table II, pre-incubated 10 minutes at 25° C., arachidonic acid 10 μM, stopped after two minutes, pH 7.5
T2 construct: A 2.0 kb fragment containing the coding region of either human or murine COX-1 or human or murine COX-2; made in house; host or cells: SF9 insect cells (baculovirus, transfer vector pVL1393)
T2 sequence (P35354 18-604): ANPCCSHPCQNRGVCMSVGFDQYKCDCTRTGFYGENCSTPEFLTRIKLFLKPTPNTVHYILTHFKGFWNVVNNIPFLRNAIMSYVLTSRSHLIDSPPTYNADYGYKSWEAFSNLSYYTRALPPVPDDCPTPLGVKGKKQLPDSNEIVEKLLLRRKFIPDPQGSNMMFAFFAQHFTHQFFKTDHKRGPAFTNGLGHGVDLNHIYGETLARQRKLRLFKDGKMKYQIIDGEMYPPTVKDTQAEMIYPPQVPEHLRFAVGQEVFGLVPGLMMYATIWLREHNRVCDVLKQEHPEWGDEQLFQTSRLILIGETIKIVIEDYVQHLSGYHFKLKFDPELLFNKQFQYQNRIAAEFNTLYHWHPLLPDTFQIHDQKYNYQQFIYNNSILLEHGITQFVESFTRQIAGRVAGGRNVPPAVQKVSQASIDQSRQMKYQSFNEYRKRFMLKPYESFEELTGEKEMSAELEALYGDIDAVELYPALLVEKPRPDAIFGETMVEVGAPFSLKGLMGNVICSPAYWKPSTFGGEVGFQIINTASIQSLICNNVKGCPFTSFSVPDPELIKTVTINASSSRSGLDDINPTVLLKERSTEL
Description: (§2) Recombinant COX-1 and COX-2 were prepared as described by Gierse et al, [[…]., 305, 479-84 (1995)]. A 2.0 kb fragment containing the coding region of either human or murine COX-1 or human or murine COX-2 was cloned into a BamH1 site of the baculovirus transfer vector pVL1393 (Invitrogen) to generate the baculovirus transfer vectors for COX-1 and COX-2 in a manner similar to the method of D. R. O'Reilly et al (Baculovirus Expression Vectors: A Laboratory Manual (1992)). Recombinant baculoviruses were isolated by transfecting 4 μg of baculovirus transfer vector DNA into SF9 insect cells (2×10^8) along with 200 ng of linearized baculovirus plasmid DNA by the calcium phosphate method. See M. D. Summers and G. E. Smith, A Manual of Methods for Baculovirus Vectors and Insect Cell Culture Procedures, Texas Agric. Exp. Station Bull. 1555 (1987). Recombinant viruses were purified by three rounds of plaque purification and high titer (10^7-10^8 pfu/mL) stocks of virus were prepared. For large scale production, SF9 insect cells were infected in 10 liter fermentors (0.5×10^6/mL) with the recombinant baculovirus stock such that the multiplicity of infection was 0.1. After 72 hours the cells were centrifuged and the cell pellet homogenized in Tris/Sucrose (50 mM: 25%, pH 8.0) containing 1% 3-[(3-cholamidopropyl)dimethylammonio]-1-propanesulfonate (CHAPS). The homogenate was centrifuged at 10,000×G for 30 minutes, and the resultant supernatant was stored at −80° C. before being assayed for COX activity.
(§3) COX activity was assayed as PGE2 formed/μg protein/time using an ELISA to detect the prostaglandin released. CHAPS-solubilized insect cell membranes containing the appropriate COX enzyme were incubated in a potassium phosphate buffer (0.05 M Potassium phosphate, pH 7.5, 2 μM phenol, 1 μM heme, 300 μM epinephrine) with the addition of 20 μl of 100 μM arachidonic acid (10 μM). Compounds were pre-incubated with the enzyme for 10 minutes at 25° C. prior to the addition of arachidonic acid. Any reaction between the arachidonic acid and the enzyme was stopped after two minutes at 37° C./room temperature by transferring 40 μl of reaction mix into 160 μl ELISA buffer and 25 μM indomethacin. The PGE2 formed was measured by standard ELISA technology (Cayman Chemical).

Human COX-1 [3] = target: T1, Human COX-1; assay: Fast assay for COX-1 and COX-2 activity (PGE2 ELISA), COX-1; type: biochemical; details: Table II, pre-incubated 10 minutes at 25° C., arachidonic acid 10 μM, stopped after two minutes, pH 7.5
Description: as §1
as §3, with “Any reaction between the arachidonic acid and the enzyme was stopped after two minutes at 37° C./room temperature by transferring 40 μl of reaction mix into 160 μl ELISA buffer and 25 μM indomethacin.” left out

Human COX-2 [4] = target: T2, Human COX-2; assay: Assay for COX-1 and COX-2 activity (PGE2 ELISA, recombinant enzyme), COX-2; type: biochemical; details: Table I; pre-incubated 10-20 minutes, arachidonic acid 10 μM, stopped after ten minutes, pH 8.0
Description: The COX-2 inhibition activity of the compounds of this invention illustrated in the Examples was determined by the following methods.
as §2
COX activity was assayed as PGE2 formed/μg protein/time using an ELISA to detect the prostaglandin released. CHAPS-solubilized insect cell membranes containing the appropriate COX enzyme were incubated in a potassium phosphate buffer (50 mM, pH 8.0) containing epinephrine, phenol, and heme with the addition of arachidonic acid (10 μM). Compounds were pre-incubated with the enzyme for 10-20 minutes prior to the addition of arachidonic acid. Any reaction between the arachidonic acid and the enzyme was stopped after ten minutes at 37° C./room temperature by transferring 40 μl of reaction mix into […] and 25 μM indomethacin. The PGE2 formed was measured by standard ELISA technology (Cayman Chemical).

Compound | IC50 (Human COX-1 [1]) | IC50 (Human COX-2 [2]) | melting point | IC50 (Human COX-1 [3]) | IC50 (Human COX-2 [4])
NS(=O)(=O)c1ccc(-c2cscc2-c2ccccc2)cc1F [Example 1, 2-Fluoro-4-(4-phenyl-3-thienyl)benzenesulfonamide] | 37.9 µM | 0.013 µM | 170.9 to 171 °C | 29.4 µM | 0.011 µM
CS(=O)(=O)c1ccc(-c2cscc2-c2ccccc2)cc1F [Example 2, 3-[3-Fluoro-4-(methylsulfonyl)phenyl]-4-phenylthiophene] | > 100 µM | 0.043 µM | 140 to 141 °C | > 100 µM | 0.051 µM
Cc1ccc(-c2cc(C(F)F)nn2-c2ccc(S(N)(=O)=O)c(F)c2)cc1Cl [Example 3, 4-[5-(3-chloro-4-methylphenyl)-3-(difluoromethyl)-1H-pyrazol-1-yl]-2-fluorobenzenesulfonamide] | 16.3 µM | 0.004 µM | 160 to 161 °C | 26.9 µM | 0.005 µM
CS(=O)(=O)c1ccc(-c2cc(C(F)(F)F)nn2-c2ccc(F)cc2)cc1F [Example 11, 5-[3-Fluoro-4-(methylsulfonyl)phenyl]-1-(4-fluorophenyl)-3-(trifluoromethyl)-1H-pyrazole] | > 100 µM | 0.13 µM | 228 to 229 °C | 22.6 µM | 0.15 µM
CS(=O)(=O)c1ccc(-c2cc(C(F)(F)F)nn2C2CCCCC2)cc1F [Example 12, 1-Cyclohexyl-5-[3-fluoro-4-(methylsulfonyl)phenyl]-3-(trifluoromethyl)-1H-pyrazole] | > 100 µM | 0.14 µM | 228 to 229 °C | > 100 µM | 0.18 µM
CS(=O)(=O)c1ccc(-c2cc(C(F)(F)F)nn2-c2cccc(C(F)(F)F)c2)cc1F [Example 13, 5-[3-Fluoro-4-(methylsulfonyl)phenyl]-3-(trifluoromethyl)-1-[3-(trifluoromethyl)phenyl]-1H-pyrazole] | > 100 µM | 0.15 µM |  | > 100 µM | 0.18 µM
CS(=O)(=O)c1ccc(-c2cc(C(F)(F)F)nn2-c2ccc(OC(F)(F)F)cc2)cc1F [Example 14, 5-[3-Fluoro-4-(methylsulfonyl)phenyl]-3-(trifluoromethyl)-1-[4-(trifluoromethoxy)phenyl]-1H-pyrazole] | > 100 µM | 0.064 µM | 110 to 112 °C | > 100 µM | 0.062 µM
Cc1ccc(-n2nc(C(F)(F)F)cc2-c2ccc(S(C)(=O)=O)c(F)c2)cc1Cl [Example 15, 1-(3-Chloro-4-methylphenyl)-5-[3-fluoro-4-(methylsulfonyl)phenyl]-3-(trifluoromethyl)-1H-pyrazole] | > 100 µM | 0.015 µM | 144 to 145 °C | 2.36 µM | 0.016 µM
CS(=O)(=O)c1ccc(-c2cc(C(F)F)nn2-c2ccc(F)cc2)cc1F [Example 18, 3-(Difluoromethyl)-5-[3-fluoro-4-(methylsulfonyl)phenyl]-1-(4-fluorophenyl)-1H-pyrazole] | > 100 µM | 0.31 µM |  | > 100 µM | 0.32 µM
CS(=O)(=O)c1ccc(-c2cc(C(F)F)nn2C2CCCCC2)cc1F [Example 19, 1-Cyclohexyl-3-(difluoromethyl)-5-[3-fluoro-4-(methylsulfonyl)phenyl]-1H-pyrazole] | > 100 µM | 0.34 µM |  | > 100 µM | 0.7 µM
Cc1ccc(-n2nc(C(F)F)cc2-c2ccc(S(C)(=O)=O)c(F)c2)cc1Cl [Example 20, 1-(3-Chloro-4-methylphenyl)-3-(difluoromethyl)-5-[3-fluoro-4-(methylsulfonyl)phenyl]-1H-pyrazole] | > 100 µM | 0.053 µM |  | > 100 µM | 0.036 µM
CS(=O)(=O)c1ccc(-c2cc(C(F)F)nn2-c2cccc(C(F)(F)F)c2)cc1F [Example 21] | > 100 µM | 0.29 µM |  | > 100 µM | 0.55 µM
